According to PubChem BioAssay AID248 (DTP/NCI, 2004):
Toxic doses and inconclusive results are not listed.

Test system: L1210 leukemia ip in BDF1 mice, survival T/C
Test: NCI In Vivo Anticancer Drug Screen. Data for tumor model L1210 Leukemia (intraperitoneal) in B6D2F1 (BDF1) mice
Settings: higher = longer survival
Method in brief: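 Value reflects the ratio of survival in compound-treated mice to survival in vehicle-treated controls, with both groups carrying the same transplanted tumor.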

[1] = endpoint: mean survival time, dose: 100.0 mg/kg/injection, schedule: Q04DX003 (ip), vehicle: Klucel (hydroxypropylcellulose) (HPC)
[2] = endpoint: mean survival time, dose: 200.0 mg/kg/injection, schedule: Q04DX003 (ip), vehicle: Klucel (hydroxypropylcellulose) (HPC)
[3] = endpoint: mean survival time, dose: 400.0 mg/kg/injection, schedule: Q04DX003 (ip), vehicle: Klucel (hydroxypropylcellulose) (HPC)
[4] = endpoint: mean survival time, dose: 100.0 mg/kg/injection, schedule: Q04DX003 (ip), vehicle: other
[5] = endpoint: mean survival time, dose: 200.0 mg/kg/injection, schedule: Q04DX003 (ip), vehicle: other
[6] = endpoint: mean survival time, dose: 400.0 mg/kg/injection, schedule: Q04DX003 (ip), vehicle: other
[7] = endpoint: mean survival time, dose: 100.0 mg/kg/injection, schedule: Q01DX001 (ip), vehicle: saline
[8] = endpoint: mean survival time, dose: 200.0 mg/kg/injection, schedule: Q01DX001 (ip), vehicle: saline

## O=C1C(c2ccccc2)CN1CC1CCCCC1 (stereo unspecified)
endpoint: mean survival time, dose: 100.0 mg/kg/injection, schedule: Q01DX001 (ip), vehicle: Klucel (hydroxypropylcellulose) (HPC)
  T/C: 98 % of control
endpoint: mean survival time, dose: 200.0 mg/kg/injection, schedule: Q01DX001 (ip), vehicle: Klucel (hydroxypropylcellulose) (HPC)
  T/C: 101 % of control
endpoint: mean survival time, dose: 400.0 mg/kg/injection, schedule: Q01DX001 (ip), vehicle: Klucel (hydroxypropylcellulose) (HPC)
  T/C: 95 % of control

## CCCCCCCCCCCCCCCCCCOc1ccc(Sc2ccc([N+](=O)[O-])cc2)cc1
[1]
  T/C: 87 % of control
[2]
  T/C: 88 % of control
[3]
  T/C: 88 % of control

## CNC(=S)Nc1ncn[nH]1
endpoint: mean survival time, dose: 100.0 mg/kg/injection, schedule: Q04DX003 (ip), vehicle: saline
  T/C: 94 % of control
endpoint: mean survival time, dose: 200.0 mg/kg/injection, schedule: Q04DX003 (ip), vehicle: saline
  T/C: 100 % of control
endpoint: mean survival time, dose: 400.0 mg/kg/injection, schedule: Q04DX003 (ip), vehicle: saline
  T/C: 86 % of control

## CN(Cc1cnc2nc(N)nc(N)c2n1)c1ccc(C(=O)NC(CCC(=O)O)C(=O)O)cc1F (stereo unspecified)
endpoint: median survival time, dose: 1.25 mg/kg/injection, schedule: Q01DX009 (ip), vehicle: other
  T/C: 150 % of control
endpoint: median survival time, dose: 2.5 mg/kg/injection, schedule: Q01DX009 (ip), vehicle: other
  T/C: 161 % of control

## COC(=O)CNc1ccc(O)cc1
[4]
  T/C: 102 % of control
[5]
  T/C: 94 % of control
[6]
  T/C: 88 % of control

## CC(Br)C(Br)(C(=O)O)c1ccccc1 (stereo unspecified)
[4]
  T/C: 91 % of control
[5]
  T/C: 95 % of control
[6]
  T/C: 96 % of control

## CCC(C)c1ccc(O)c(CN(CCO)CCO)c1 (stereo unspecified)
[7]
  T/C: 105 % of control
[8]
  T/C: 101 % of control

## COC(=O)C1=C(NC(=O)Nc2ccc(Cl)cc2)OC(C)(C)C1c1ccc(Cl)cc1 (stereo unspecified)
endpoint: mean survival time, dose: 12.5 mg/kg/injection, schedule: Q01DX001 (ip), vehicle: saline
  T/C: 92 % of control
endpoint: mean survival time, dose: 12.5 mg/kg/injection, schedule: Q01DX009 (ip), vehicle: saline
  T/C: 86 % of control
endpoint: mean survival time, dose: 12.5 mg/kg/injection, schedule: Q04DX003 (ip), vehicle: acetone
  T/C: 93 % of control
endpoint: mean survival time, dose: 25.0 mg/kg/injection, schedule: Q01DX001 (ip), vehicle: saline
  T/C: 87 % of control
endpoint: mean survival time, dose: 25.0 mg/kg/injection, schedule: Q01DX009 (ip), vehicle: saline
  T/C: 90 % of control
endpoint: mean survival time, dose: 25.0 mg/kg/injection, schedule: Q04DX003 (ip), vehicle: acetone
  T/C: 100 % of control
endpoint: mean survival time, dose: 50.0 mg/kg/injection, schedule: Q01DX001 (ip), vehicle: saline
  T/C: 86 % of control
endpoint: mean survival time, dose: 50.0 mg/kg/injection, schedule: Q04DX003 (ip), vehicle: acetone
  T/C: 96 % of control

## Cc1cccc(OC(=O)NC2CCCCC2)c1
endpoint: mean survival time, dose: 100.0 mg/kg/injection, schedule: Q01DX009 (ip), vehicle: Klucel (hydroxypropylcellulose) (HPC)
  T/C: 118 % of control
[1]
  T/C: 102 % of control
endpoint: mean survival time, dose: 200.0 mg/kg/injection, schedule: Q01DX009 (ip), vehicle: Klucel (hydroxypropylcellulose) (HPC)
  T/C: 114 % of control
[2]
  T/C: 95 % of control
endpoint: mean survival time, dose: 400.0 mg/kg/injection, schedule: Q01DX009 (ip), vehicle: Klucel (hydroxypropylcellulose) (HPC)
  T/C: 106 % of control
[3]
  T/C: 96 % of control

## COc1cc(C)nc2ccc(Cc3ccc4nc(C)cc(OC)c4c3)cc12
[7]
  T/C: 94 % of control
[8]
  T/C: 93 % of control
endpoint: mean survival time, dose: 400.0 mg/kg/injection, schedule: Q01DX001 (ip), vehicle: saline
  T/C: 96 % of control
